pEC50: −log10 of the molar value.

The subject of the first assay is HBV. Briefly: Viral load production from HepAD38 cells, qPCR of the HBV core sequence in supernatant. The format is cell-based. As to conditions: Hepatitis B virus, HePAD38, 120 h, HepAD38 cells, 5 days, HBV DNA in supernatant by qPCR; Table 1 ranges; read-out: Activity (viral load lowering EC50). The procedure: HepAD38 cells grown in a T-150 flask (Corning, cat#: 430825) with Growth Medium (DMEM/F12 (1:1) (Hyclone, cat#: SH30023.02), 1X Pen/Strep (Invitrogen, cat#: 15140-122), 10% FBS (Tissue Culture Biologics, cat#: 101), 250 µg/mL G418 (Alfa Aesar, cat#: J62671), 1 µg/mL Tetracycline (Teknova, cat#: T3320)) were detached with 0.25% trypsin-EDTA (Invitrogen, cat#: 25200-056). Tetracycline-free treatment medium (15 mL DMEM/F12 (1:1) 1× Pen/step, with 2% FBS, Tet-system approved (Clontech, cat#: 631106) were then added to mix, transferred into a 50 ml conical tube (Falcon, cat#: 21008-918,) and spun at 1300 rpm for 5 min. Pelleted cells were then re-suspended/washed with 50 mL of 1X DPBS (Invitrogen, cat#: 14190-136) 2 times and 50 mL treatment medium twice. HepAD38 cells were then re-suspended with 10 mL of treatment medium, syringed and counted. Wells of 96-well clear bottom TC plate (Corning, cat#: 3904,) were seeded at 50.000 cells/well in 180 µL of treatment medium, and 20 µL of either 10% DMSO (Sigma, cat#: D4540) as controls or a 10X solution of test compounds in 10% DMSO in treatment media was added for a final compound concentration starting at 10 µM, and plates were incubated in 5% CO2 incubator at 37° C. for 5 days.
Subsequently viral load production was assayed by quantitative PCR (qPCR) of the HBV core sequence. PCR reaction mixture containing forward primers HBV-f 5′-CTGTGCCTTGGGTGGCTTT-3′ (IDT DNA), Reverse primers HBV-r 5′-[…]-3′ (IDT DNA), Fluorescent TaqMan^tm Probes HBV-probe 5′-FAM/AGCTCCAAA/ZEN/[…]/3IABkFQ-3′ (IDT DNA), 10 µL/well of PerfeCTa® qPCR ToughMix® (Quanta Biosciences, Cat#: 95114-05 K), and 6 µL/well of DEPC water (Alfa Aesar, cat#: J62087) was prepared. Four µL of supernatant was added to 16 µL of the reaction mixture in a qPCR plate (Applied Biosytems, Cat#: 4309849), sealed with a film (Applied Biosystems, Cat#: 4311971), centrifuged for a few seconds, and subsequently run on an Applied Biosystems VIIA7. The PCR mixture was incubated at 45° C. for 5 min, then 95° C. for 10 min, followed by 40 cycles of 10 seconds at 95° C. and 20 seconds at 60° C. Viral load was quantified against known HBV DNA standards by using ViiA™ 7 Software. Viral load in the supernatant from wells with treated cells were compared against viral load in supernatant from DMSO control wells (≥ 3 per plate). Cell viability assay was performed with CellTiter-Glo Luminescent Cell Viability Assay (Promega, cat#: G7573) with modification. Mixed appropriate amount of CellTiter-Glo (CTG) 1X DPBS in a 1:1 ratio, added 100 uL of the mixture to each well followed completely removal of all supernatant in each well without touching cell surface. Incubated the plate at room temperature for 10 min on an orbital shaker, and then read the plate with a plate reader (TECAN M1000 or Envision). EC50 or CC50 values were calculated through curve-fitting of the four-parameter nonlinear-logistic-regression model (GraphPad Prism or Dotmatics). CC50 values were all >10 µM.
(In general: In qPCR the cycle at which signal appears reflects the starting amount.)
`Cn1nc([N+](=O)[O-])cc1C1(O)CC2CC(c3nn(C)c(N)c3C(=O)Nc3ccc(F)c(Cl)c3)CC2C1` [Compd. 4-2, 5-amino-N-(3-chloro-4-fluorophenyl)-3-((2 s,3aR,5r,6aS)-5-hydroxy-5-(1-methyl-3-nitro-1H-pyrazol-5-yl)octahydropentalen-2-yl)-1-methyl-1H-pyrazole-4-carboxamide]: the pEC50 (commonly the EC50 on a negative log10 scale, so that one unit is a factor of ten) was greater than 8.00.

Regarding `Cn1nc(C2CC3CC(O)(c4cn(COP(=O)(OC(C)(C)C)OC(C)(C)C)nc4C(F)(F)F)CC3C2)c(C(=O)Nc2ccc(F)c(Cl)c2)c1N` (centres unmarked) [Compd. 6-1, (4-(5-(5-amino-4-((3-chloro-4-fluorophenyl)carbamoyl)-1-methyl-1H-pyrazol-3-yl)-2-hydroxyoctahydropentalen-2-yl)-3-(trifluoromethyl)-1H-pyrazol-1-yl)methyl di-tert-butyl phosphate], the pEC50 is 7.30 to 8.00.

As for `Cn1nc(C2CC3CC(O)(c4ccccc4)CC3C2)c(C(=O)Nc2ccc(F)c(Cl)c2)c1N` (centres unmarked) [Example 1, 5-Amino-N-(3-chloro-4-fluorophenyl)-3-(5-hydroxy-5-phenyl-octahydropentalen-2-yl)-1-methyl-1H-pyrazole-4-carboxamide], the pEC50 was greater than 8.00.

For the molecule `C=CCC1(O)CC2CC(c3nn(C)c(N)c3C(=O)Nc3ccc(F)c(Cl)c3)CC2C1` (centres unmarked) [Example 2, 3-(5-Allyl-5-hydroxyoctahydropentalen-2-yl)-5-amino-N-(3-chloro-4-fluorophenyl)-1-methyl-1H-pyrazole-4-carboxamide], the pEC50 is greater than 8.00.

As to `Cn1nc(C2CC3CC(O)(c4ccc(Cl)cc4)CC3C2)c(C(=O)Nc2ccc(F)c(Cl)c2)c1N` (centres unmarked) [Example 3, 5-Amino-N-(3-chloro-4-fluorophenyl)-3-(5-(4-chlorophenyl)-5-hydroxyoctahydropentalen-2-yl)-1-methyl-1H-pyrazole-4-carboxamide], the pEC50 was 7.30 to 8.00.

For the molecule `Cn1nc(C2CC3CC(O)(c4ccc(F)cc4)CC3C2)c(C(=O)Nc2ccc(F)c(Cl)c2)c1N` (centres unmarked) [Example 4, 5-Amino-N-(3-chloro-4-fluorophenyl)-3-(5-(4-fluorophenyl)-5-hydroxyoctahydropentalen-2-yl)-1-methyl-1H-pyrazole-4-carboxamide], the pEC50 is 7.30 to 8.00.

As to `COc1ccc(C2(O)CC3CC(c4nn(C)c(N)c4C(=O)Nc4ccc(F)c(Cl)c4)CC3C2)cc1` (centres unmarked) [Example 5, 5-Amino-N-(3-chloro-4-fluorophenyl)-3-(5-hydroxy-5-(4-methoxyphenyl)octahydropentalen-2-yl)-1-methyl-1H-pyrazole-4-carboxamide], the pEC50 is greater than 8.00.

On to `Cc1ccc(C2(O)CC3CC(c4nn(C)c(N)c4C(=O)Nc4ccc(F)c(Cl)c4)CC3C2)cc1` (centres unmarked) [Example 6, 5-Amino-N-(3-chloro-4-fluorophenyl)-3-(5-hydroxy-5-(p-tolyl)octahydropentalen-2-yl)-1-methyl-1H-pyrazole-4-carboxamide], for which the pEC50 was greater than 8.00.

In the case of `Cc1ccc(C2(O)CC3CC(c4nn(C)c(N)c4C(=O)Nc4ccc(F)c(C#N)c4)CC3C2)cc1` (centres unmarked) [Example 7, 5-Amino-N-(3-cyano-4-fluorophenyl)-3-(5-hydroxy-5-(p-tolyl)octahydropentalen-2-yl)-1-methyl-1H-pyrazole-4-carboxamide], the pEC50 was greater than 8.00.

With `Cc1ccccc1C1(O)CC2CC(c3nn(C)c(N)c3C(=O)Nc3ccc(F)c(Cl)c3)CC2C1` (centres unmarked) [Example 8, 5-Amino-N-(3-chloro-4-fluorophenyl)-3-(5-hydroxy-5-(o-tolyl)octahydropentalen-2-yl)-1-methyl-1H-pyrazole-4-carboxamide], the pEC50 is greater than 8.00.

Staying with this assay, now noted: Hepatitis B virus, HePAD38, 120 h, read-out: Activity (viral load lowering EC50), HepAD38 cells, 5 days, HBV DNA in supernatant by qPCR; Table 1 ranges.
On to `Cn1nc(C2CC3CC(O)(c4cn(COP(=O)(O)OC(C)(C)C)nc4C(F)(F)F)CC3C2)c(C(=O)Nc2ccc(F)c(Cl)c2)c1N` (centres unmarked) [Cpmpd. 6-2, (4-(5-(5-amino-4-((3-chloro-4-fluorophenyl)carbamoyl)-1-methyl-1H-pyrazol-3-yl)-2-hydroxyoctahydropentalen-2-yl)-3-(trifluoromethyl)-1H-pyrazol-1-yl)methyl tert-butyl hydrogen phosphate], for which the pEC50 was 7.30 to 8.00.

The values above are taken from patent US20230295096A1, “PYRAZOLE CARBOXAMIDE COMPOUNDS FOR TREATMENT OF HBV” (ASSEMBLY BIOSCIENCES, INC., priority 2020, published 2023).
